Source: patent US20250277794A1, “SQSTM1 AND ITS USE IN CANCER THERAPY” (CENTRE NATIONAL DE LA RECHERCHE SCIENTIFIQUE, priority 2020, published 2025)

B1: IFNG: IFNγ (C-60724 Promokine), positive control (protein, UniProt P01579 24-161, looked up)
Interferon gamma: QDPYVKEAENLKKYFNAGHSDVADNGTLFLGILKNWKEESDRKIMQSQIVSFYFKLFKNFKDDQSIQKSVETIKEDMNVKFFNSNKKKRDDFEKLTNYSVTDLNVQRKAIHELIQVMAELSPAAKTGKRKRSQMLFRG

Key:
Format in all cases: cell-based, human
[1] = test system: shControl (ShC) A549 cells; assay: Cell viability / Crystal Violet Cytotoxicity Assay, dose-response IC50, shControl A549 cells
Experimental: (§1) The majority of experiments presented in this study was performed with the human KRAS G12S/SKT11 Q37* co-mutated NSCLC A549 cells (American Type Tissue Collection, ATCC). All cells were maintained in Dulbecco's-modified minimum essential medium and Ham's F-12 medium (DMEM/F12 Glutamax; Life Technologies) supplemented with 10% fetal bovine serum (Dutcher), 2% Sodium Pyruvate, and 1% Penicillin-Streptomycin (Life technologies). To establish SQSTM1 knockdown stable cell lines, cells were transduced with small hairpin RNAs (shRNAs) lentiviruses that target the mRNA coding sequence of SQSTM1. Two distinct SQSTM1 shRNAs (Sigma, human, NM_003900, SQSTM1 #1, TRCN0000007237, and SQSTM1 #2, TRCN0000007236) were used to minimize sequence-dependent off-target effects. As controls, autophagy was inhibited at the initiation step by ATG5 (Sigma, human, NM_004849, ATG5 #1, TRCN0000151963) or ATG7 shRNA (Sigma, human, NM_006395, TRCN0000007584). For this purpose, the targeted and control (Sigma; SHC002V) shRNA lentivirus were transduced into the cells. ShRNA-mediated protein downregulation was controlled by qRT-PCR or immunoblotting with specific primers and antibodies (see for shRNA, primer, and antibody details the supplemental Tables 1 to 3).
(§2) For all experiments, cells were seeded in 6-well plates or 60 mm culture dishes and incubated until they reached 60-70% confluency.

ShSQSTM1 A549 cells = assay: Cell viability / Crystal Violet Cytotoxicity Assay, dose-response IC50, shSQSTM1 A549 cells
Experimental: as §1, §2

[2] = test system: HLA-B and PD-L1 expression in ShC A549 cells; assay: IFN/HLA-B/PD-L1 pathway expression (qRT-PCR, western blot, flow cytometry) in shControl A549 cells; conditions: for Induction of HLA-B and PD-L1 expression: ShC (SQSTM1 positive) A549 cells, 5-Aza 500 nM, 5 and 6 days, IFNG 50 ng/ml
[3] = test system: HLA-B and PD-L1 expression in ShSQSTM1 A549 cells; assay: IFN/HLA-B/PD-L1 pathway expression (qRT-PCR, western blot, flow cytometry) in SQSTM1-depleted A549 cells; conditions: docetaxel 5 nM; for TBK1/STAT1 phosphorylation and expression of IFN, HLA-B and PD-L1 in SQSTM1-depleted cells: Cisplatin 10 μM, IFNG 50 ng/ml
Experimental: as §2
Quantitative real-time polymerase chain reaction analysis was performed on equal amounts of cDNA using the SYBR Green master mix and an Applied StepOne Plus PCR system (Life technologies). Relative gene expression changes were quantified using the 2 [−ΔΔCt] method and normalized to the housekeeping gene RPLP0 compared to the untreated cell samples.
Cell-surface expression of PD-L1 was examined using flow cytometry. […] Flow cytometry analysis was performed on a Cytoflex flow cytometer (10,000 cells, Cytoflex software). The MFI (PD-L1-isotype) is calculated as the MFI (PD-L1) is subtracted by the MFI (isotype control).

[4] = test system: 53BP1-positive foci in A549 cells; assay: Global DNA damage measured by 53BP1 focus formation (immunofluorescence); conditions: Cisplatin 10 μM, FIG. 18
Experimental: At the indicated time, global DNA damage (A) was measured by 53BP1 focus formation (right immunofluorescence staining, 53BP1 red, Dapi, blue. Left, cell percentage with more than five spots).

[5] = Homo sapiens, Shc A549, dose-response curves (Cell Treatments)
[6] = Homo sapiens, ShSQSTM1 A549, dose-response curves (Cell Treatments)
[7] = Shc A549, dose-response curves (Cell Treatments)
[8] = ShSQSTM1 A549, dose-response curves (Cell Treatments)

Molecule | IC50 [1, 5] [µM] | IC50 (ShSQSTM1 A549 cells; [6]) [µM] | TBK1/STAT1 phosphorylation and expression of IFN, HLA-B and PD-L1 in SQSTM1-depleted cells [3] | Induction of HLA-B and PD-L1 expression [2] | further results
CC(=O)O[C@H]1C(=O)[C@@]2(C)[C@H]([C@H](OC(=O)c3ccccc3)[C@]3(O)C[C@H](OC(=O)[C@H](O)[C@@H](NC(=O)c4ccccc4)c4ccccc4)C(C)=C1C3(C)C)[C@]1(OC(C)=O)CO[C@@H]1C[C@@H]2O [Paclitaxel] | 0.0014 | 0.0037 |  |  | 
O=C(NCCCNc1nc(Nc2cccc(CN3CCOCC3)c2)ncc1C1CC1)C1CCC1 [MRT 67307] |  |  |  |  | Block of Cisplatin ability to induce IFN/HLA B/PD-L1 ([2]; co-treatment with Cisplatin 10 μM, MRT 67307 10 μM, Ruxolitinib 5 μM, FIG. 26): sufficient to block
CC(=O)O[C@@]12CO[C@@H]1C[C@H](O)[C@@]1(C)C(=O)[C@H](O)C3=C(C)[C@@H](OC(=O)[C@H](O)[C@@H](NC(=O)OC(C)(C)C)c4ccccc4)C[C@@](O)([C@@H](OC(=O)c4ccccc4)[C@H]21)C3(C)C [Docetaxel] | 0.364 | 0.0213 | significantly rescued |  | Growth arrest and DNMT1 downregulation ([2]; Shc A549 cells, docetaxel 5 nM, qRT-PCR): did trigger growth arrest and DNMT1 downregulation; Growth arrest and DNMT1 downregulation ([3]; qRT-PCR): did trigger growth arrest and DNMT1 downregulation
COc1cccc2c1C(=O)c1c(O)c3c(c(O)c1C2=O)C[C@@](O)(C(=O)CO)C[C@@H]3O[C@H]1C[C@H](N)[C@H](O)[C@H](C)O1 [Doxorubicin] | 0.364 | 0.486 |  | recapitulated the late induction of this pathway | 
O=C1[O][Pt]2([NH][C@@H]3CCCC[C@H]3[NH]2)[O]C1=O [Oxaliplatin] |  |  |  | recapitulated the late induction of this pathway | IC50 [1, 7]: 2.61 µM; IC50 (ShSQSTM1 A549 cells; [8]): 4.51 µM
Nc1ncn([C@@H]2O[C@H](CO)[C@@H](O)[C@H]2O)c(=O)n1 [5-Azacytidine] |  |  |  | recapitulated the late expression of HLA-B and PD-L1 | 
CO/C1=C\C(C)=C\[C@@H](C)[C@@H](O)[C@@H](C)C/C(C)=C/C=C/[C@H](OC)[C@@H]([C@@H](C)[C@@H](O)[C@H](C)[C@@]2(O)C[C@@H](O)[C@H](C)[C@@H](C(C)C)O2)OC1=O [bafA1] |  |  |  |  | HLA-B and PD-L1 expression on pharmacological autophagy inhibition ([2]; A549 cells, data not shown): enhanced expression of HLA-B and PD-L1
N.N.[Cl][Pt][Cl] [Cisplatin] |  |  | did not up-regulate | most effective drug for inducing HLA-B and PD-L1 | Start of formation of 53BP1-positive foci [4]: 6 h; Time of peak value of 53BP1-positive foci [4]: 16 h; IC50 [1, 7]: 24 µM; IC50 ([1]; control ShC A549 cells, Cisplatin 5 days, FIG. 14): 24 ± 1.4 µM; IC50 (ShSQSTM1 A549 cells; [8]): 47.7 µM; IC50 (ShSQSTM1 A549 cells; ShSQSTM1 A549 cells, Cisplatin 5 days, FIG. 14): 51 ± 5.3 µM
B1 |  |  | induced STAT1 phosphorylation, HLA-B, and PD-L1 expression | induced STAT1 phosphorylation, HLA-B, and PD-L1 expression | 
